According to publication PMC4538381, “Activation of Relaxin Family Receptor 1 from Different Mammalian Species by Relaxin Peptide and Small-Molecule Agonist ML290” (Frontiers in Endocrinology, 2015):
“Also recorded” adds a separate entry of the source.

Columns and labels:
human RXFP1 = test: CRE-Luc BacMam luciferase assay, human RXFP1; type: cell-based; design: key to Activation of RXFP1 receptors: *: Weak; **: intermediate; ***: strong activation of the receptor
Method: (§1) GloResponse™ CRE-luc2P HEK293T cells stably transfected with cAMP response element-driven luciferase (CRE-Luc) reporter (Promega, Madison, WI, USA) were transduced with human, macaque, pig, and mouse RXFP1 expression BacMam vectors according to the manufacturer’s protocol (Invitrogen) and incubated at room temperature for 2 h in the dark with occasional mixing. The volume of the cell culture was adjusted to 1000 cells/μl with DMEM + 10% FBS. Cells (3 μl, 3000 cells) were plated on 1536-well white solid-bottom TC plates and incubated overnight at 37C°, 5% CO2. Four hundred […] Ro 20-1724 (Sigma-Aldrich, St. Louis, MO, USA) in PBS (1 μl) was added in each well. The cells were treated with serial dilutions of either Forskolin (Sigma-Aldrich), ML290 ([5]) or porcine RLN at final concentrations’ range (57 μM–3.5 pM) for Forskolin and ML290, and (8.7 μM–1.8 pM, or 57 ng/μl–0.012 pg/μl] for RLN. After 2 h stimulation at 37°C, 4 μl of detection reagent from Amplite™ Luciferase reporter gene assay kit (AAT Bioquest, Sunnyvale, CA, USA) was added as a mix of 90% Component A, 5% Component C, and 5% Component D, and incubated at room temperature for 5 min. Luminescent signal was measured on Viewlux uHTS Microplate Imager (PerkinElmer, Santa Clara, CA, USA). The data were processed using GraphPad Software (San Diego, CA, USA).

macaque RXFP1 = test: CRE-Luc BacMam luciferase assay, macaque RXFP1; type: cell-based, rhesus macaque (Macaca mullata); design: key to Activation of RXFP1 receptors: *: Weak; **: intermediate; ***: strong activation of the receptor
Method: as §1

pig RXFP1 = test: CRE-Luc BacMam luciferase assay, pig RXFP1; type: cell-based, pig (Sus scrofa); design: key to Activation of RXFP1 receptors: *: Weak; **: intermediate; ***: strong activation of the receptor
Method: as §1

mouse RXFP1 = test: CRE-Luc BacMam luciferase assay, mouse RXFP1; type: cell-based; details: CRE-luc HEK293T, 2 h, highest concentrations of ML290 (range 57 μM–3.5 pM)
Method: as §1

GH-RXFP1 = test: Direct HTRF cAMP assay, guinea pig/human chimera GH-RXFP1; type: cell-based; design: key to Activation of RXFP1 receptors: *: Weak; **: intermediate; ***: strong activation of the receptor
Method: (§2) The human, mouse, macaque, and pig RXFP1 cDNA constructs in baculovirus BacMam mammalian expression vector (Invitrogen, Carlsbad, CA, USA) were synthesized at the Eukaryotic Expression Group-Protein Expression laboratory (NCI, Frederick, MD, USA). The PCR primers for RT-PCR were designed to cover the full-length sequence of the open reading frame (ORF). PCR amplifications were performed with PfuUltra High-Fidelity DNA polymerase (Agilent Technologies, Santa Clara, CA, USA). Guinea pig RXFP1 (G-RXFP1) was amplified from guinea pig ovarian cDNA (Zyagen, San Diego, CA, USA). Rabbit RXFP1 (R1-RXFP1 and R2-RXFP1) cDNAs were amplified from rabbit uterus cDNA (Zyagen). All cloning was performed using the In-Fusion® HD Cloning Kit (Clontech Laboratories, Mountain View, CA, USA). Rabbit and guinea pig RXFP1s were cloned into pCR3.1 mammalian expression vector (Invitrogen). […]
(§3) Direct measurement of cAMP production was performed using the HTRF cAMP HiRange kit (CisBio, Bedford, MA, USA). […] The plates were incubated for 60 min at room temperature, and the signal was read on a FLUOstar Omega (BMG Labtech, Cary, NC, USA) plate reader. cAMP levels were calculated according to the manufacturer’s instructions against a standard curve. […]

R1-RXFP1 and R2-RXFP1 = test: Direct HTRF cAMP assay, rabbit R1-RXFP1 and R2-RXFP1; type: cell-based, European rabbit (Oryctolagus cuniculus); design: key to Activation of RXFP1 receptors: *: Weak; **: intermediate; ***: strong activation of the receptor
Method: The human, mouse, macaque, and pig RXFP1 cDNA constructs in baculovirus BacMam mammalian expression vector (Invitrogen, Carlsbad, CA, USA) were synthesized at the Eukaryotic Expression Group-Protein Expression laboratory (NCI, Frederick, MD, USA). The PCR primers for RT-PCR were designed to cover the full-length sequence of the open reading frame (ORF). PCR amplifications were performed with PfuUltra High-Fidelity DNA polymerase (Agilent Technologies, Santa Clara, CA, USA). Guinea pig RXFP1 (G-RXFP1) was amplified from guinea pig ovarian cDNA (Zyagen, San Diego, CA, USA). Rabbit RXFP1 (R1-RXFP1 and R2-RXFP1) cDNAs were amplified from rabbit uterus cDNA (Zyagen). All cloning was performed using the In-Fusion® HD Cloning Kit (Clontech Laboratories, Mountain View, CA, USA). Rabbit and guinea pig RXFP1s were cloned into pCR3.1 mammalian expression vector (Invitrogen). In order to study RXFP1 surface expression, rabbit cDNAs were cloned into pcDNA3.1™/Zeo+ mammalian expression vector (Invitrogen), which contained an N-terminal FLAG-tag and a bovine prolactin signal sequence (3). […] To make chimeric clones, the human, guinea pig, and rabbit plasmid were used as templates to produce PCR amplicons, which were then used for overlapping PCR and subsequent cloning with the In-Fusion kit. The chimeric guinea pig/human GH-RXFP1 construct contains guinea pig RXFP1 cDNA (G-RXFP1, 1–1499 bp) encoding the ectodomain, TM1, TM2, and part of TM3 (amino acids 1–499 of G-RXFP1), and human RXFP1 (hRXFP1, 1509–2274 bp) encoding TM3 to the C-terminal tail of the receptor (amino acids 503–757 of hRXFP1) (Figure 1A). The recombinant chimeric human–rabbit HR-RXFP1 was made with the 5′-part of the hRXFP1 sequence (1–972 bp, LDLa-LRR9, 1–324 aa), with the remainder being the rabbit RXFP1 sequence (973–2277 bp, LRR9-C-terminal tail, 325–759 aa) (Figure 1A). The recombinant chimeric rabbit–human R1H-RXFP1 or R2H-RXFP1 contains the N-terminal rabbit RXFP1 sequence (1–972 bp for R1-RXFP1 or 975 bp for R2-RXFP1), with the remaining sequence being hRXFP1 (973–2274) (Figure 1A). R1- and R2-RXFP1 denote two variants of rabbit RXFP1 cDNA. All numbers correspond to the full-length cDNAs with the first nucleotide of the ORF.
(§4) HEK293T cell transient transfections were performed using Lipofectamine 2000 transfection reagent (Life Technologies, Grand Island, NY, USA) according to the manufacturer’s instructions. Cells transiently expressing the RXFP1 receptors were used within 48 h of transfection. Each construct was tested at least three times. For cell-conditioned media stimulation, HEK293T cells were transfected with the rabbit RLN construct (SQ10) or an empty pCR3.1 vector, and cells were cultured for 24 h. The media was used to stimulate HEK293T cells transfected with the RXFP1 receptors.
(§5) Direct measurement of cAMP production was performed using the HTRF cAMP HiRange kit (CisBio, Bedford, MA, USA). HEK293T cells transiently transfected with different RXFP1 receptors were stimulated with various concentrations of RLN peptides or ML290 for 60 min at 37°C, 5% CO2, after which, two HTRF detection reagents (diluted according to assay kit directions in HTRF lysis buffer) were added. The plates were incubated for 60 min at room temperature, and the signal was read on a FLUOstar Omega (BMG Labtech, Cary, NC, USA) plate reader. cAMP levels were calculated according to the manufacturer’s instructions against a standard curve. Statistical processing of the data was performed using GraphPad Prism software.

HR-RXFP1 = test: Direct HTRF cAMP assay, human/rabbit chimera HR-RXFP1; type: cell-based; details: transiently transfected HEK293T, % of hRXFP1 activation by 10 nM RLN
Method: as §2, §3

R1H-RXFP1 and R2H-RXFP1 = test: Direct HTRF cAMP assay, rabbit/human chimeras R1H- and R2H-RXFP1; type: cell-based; design: key to Activation of RXFP1 receptors: *: Weak; **: intermediate; ***: strong activation of the receptor
Method: as §2, §3

R1-RXFP1 = test: Indirect CRE-β-gal reporter cAMP assay, rabbit R1-RXFP1; type: cell-based, European rabbit (Oryctolagus cuniculus); details: 6 h at 37°C, % of 5 μM Forskolin response
Method: For the indirect cAMP assay, changes in cAMP signaling were measured by co-transfection of receptors with a CRE-β-galactosidase (CRE-β-gal) reporter construct ([11]). Cells were stimulated for 6 h at 37°C with RLN peptides or ML290 at various concentrations. A non-linear regression sigmoidal dose–response curve was then produced using GraphPad Prism. All experiments were conducted at least three times with three to four replicates each time.

mouse RXFP1 receptor = details: direct cAMP HTRF assay, ref [5]; cited from earlier work
[1] = test system: modified mouse receptor with humanized ECL3; details: ECL3 amino acids mutated, ref [5]; cited from earlier work
Text: The rabbit and guinea pig receptors provide new structural templates for analysis of RLN and ML290 activation of RXFP1. […] Indeed, it was shown that primary binding of RLN to RXFP1 involve sites within LRR4, 5, 6, and 8 ([2]). In contrast, the 7TM region of RXFP1, which is the site of allosteric small-molecule agonist binding, is functional in rabbits. The opposite was true for guinea pig RXFP1: despite having the same ECL3 sequence as pig ...

hRXFP1 = test: Direct HTRF cAMP assay, hRXFP1; type: cell-based, human; details: conditioned media from SQ10-transfected HEK293T cells, % of 10 μM Forskolin
Method: as §4, §5

G-RXFP1 = test: Direct HTRF cAMP assay, guinea pig G-RXFP1; type: cell-based, guinea pig (Cavia porcellus); details: conditioned media from SQ10-transfected HEK293T cells, % of 10 μM Forskolin
Method: as §2, §3

CC(C)Oc1ccccc1C(=O)Nc1ccccc1C(=O)Nc1cccc(S(=O)(=O)C(F)(F)F)c1 [ML290]
Activation of RXFP1 receptors (human RXFP1; Human receptor, summary grade, HEK293T cells): ***
cAMP response (luciferase activity) (human RXFP1; human RXFP1, CRE-luc HEK293T, 2 h, ML290 57 μM–3.5 pM): responded strongly to ML290 stimulation
Activation of RXFP1 receptors (macaque RXFP1; Macaque receptor, summary grade, HEK293T cells): ***
cAMP response (luciferase activity) (macaque RXFP1; macaque RXFP1, CRE-luc HEK293T, 2 h, ML290 57 μM–3.5 pM, RLN 8.7 μM–1.8 pM): responded to relaxin and ML290 treatment; also recorded: responded strongly to ML290 stimulation; also recorded: fully activated by RLN and ML290
Activation of RXFP1 receptors (pig RXFP1; Pig receptor, summary grade, HEK293T cells): ***
cAMP response (luciferase activity) (pig RXFP1; pig RXFP1, CRE-luc HEK293T, 2 h, ML290 57 μM–3.5 pM, RLN 8.7 μM–1.8 pM): responded to relaxin and ML290 treatment; also recorded: responded strongly to ML290 stimulation; also recorded: fully activated by RLN and ML290
cAMP response (luciferase activity) (mouse RXFP1): significant increase in luciferase activity; also recorded: activation of the CRE-reporter was observed with high-dose ML290 treatment on the mouse receptor
cAMP response (GH-RXFP1; GH-RXFP1, transiently transfected HEK293T, HTRF, 60 min at 37°C, % of 10 μM Forskolin response): only partially restored ML290 activation; also recorded: ML290 responsiveness, albeit to a much lower level than in hRXFP1 (p < 0.001); also recorded: efficacy of ML290 stimulation was improved, however, it was still lower than in hRXFP1-transfected cells
Activation of RXFP1 receptors (GH-RXFP1; Guinea pig/human chimera, summary grade, HEK293T cells): *
cAMP response, FLAG-tagged receptors (R1-RXFP1 and R2-RXFP1; FLAG-tagged R1- and R2-RXFP1, HTRF, 60 min, % of hRXFP1 activation by 10 nM RLN): produced a cAMP increase in cells transfected with both rabbit receptors, albeit with lesser efficacy than hRXFP1
statistical significance of response versus hRXFP1 (R1-RXFP1 and R2-RXFP1; R1- and R2-RXFP1, 10 nM relaxin peptides or 5 μM ML290, HTRF): statistically significant compared to hRXFP1, ***p < 0.001
cAMP response to 5 μM ML290 (R1-RXFP1 and R2-RXFP1; R1- and R2-RXFP1, 5 μM ML290, HTRF, transiently transfected HEK293T): responded to 5 μM of ML290
cAMP response (R1-RXFP1 and R2-RXFP1; R1-RXFP1 and R2-RXFP1, transiently transfected HEK293T, data not shown): generated an increase in cAMP
Activation of RXFP1 receptors (R1-RXFP1 and R2-RXFP1; Rabbit 1 and 2, summary grade, HEK293T cells): **
activation of rabbit RXFP1 (summary) (R1-RXFP1 and R2-RXFP1; rabbit RXFP1 variants, cAMP production, abstract/discussion): activated by ML290
cAMP response (HR-RXFP1): all three receptors respond to ML290
cAMP response (R1H-RXFP1 and R2H-RXFP1; R1H- and R2H-RXFP1, HTRF, transiently transfected HEK293T, % of hRXFP1 activation by 10 nM RLN): the level of activation of R1H- and R2H-RXFP1 was higher than that of R1-, R2-, or HR-RXFP1-transfected cells
Activation of RXFP1 receptors (R1H-RXFP1 and R2H-RXFP1; Rabbit 1(2)/human chimera, summary grade, HEK293T cells): **
cAMP response (ML290), CRE-β-gal (R1-RXFP1): comparable to hRXFP1
activation of mouse RXFP1 (cAMP) (mouse RXFP1 receptor): does not activate the mouse receptor; also recorded: did not see an increase of cAMP; also recorded: no activation being seen in the direct HTRF cAMP assay; also recorded: did not activate the mouse RXFP1 receptor
activation of mouse receptor with humanized ECL3 [1]: activated by ML290

B1: SQ10: rabbit RLN expressed from SQ10 cDNA in HEK293T cells, used as conditioned medium (protein)
chain: RVTYEWMMENVKICRNDFVRTAIEVCGHVHLERESPSPENPFLSSGPAAETVPSSIKKDAENANTMLESIPNLPQELTATLFEKQPSKLYLQYLPTLKKSNVSFEEFKKIIQNIQRGVQGSSASESNTFSRKKRQFSESLPEECCKYGCPRYYLLMYC
cAMP response to SQ10 conditioned medium (hRXFP1): responded to SQ10 treatment with cAMP production; also recorded: activated human and guinea pig receptors and thus was fully functional
cAMP response to SQ10 conditioned medium (G-RXFP1): responded to SQ10 treatment with cAMP production; also recorded: activated human and guinea pig receptors and thus was fully functional
cAMP response to SQ10 conditioned medium (R1-RXFP1 and R2-RXFP1; R1- or R2-RXFP1, conditioned media from SQ10-transfected HEK293T cells, HTRF, % of 10 μM Forskolin): No response was recorded; also recorded: Neither of the two rabbit RXFP1 variants responded
statistical significance of response versus hRXFP1 or G-RXFP1 (R1-RXFP1 and R2-RXFP1; R1-RXFP1, SQ10 conditioned media, HTRF): statistically significant (p < 0.0001) compared to hRXFP1 or G-RXFP1
